According to patent publication US20140303109A1 (priority 2010, published 2014):

Tests used:
[1] = Pancreas tissue pharmacokinetics after single intragastric dose; type: in vivo, mice
Description: (§1) The mice were randomly divided into two groups of 18 mice apiece. […] Blood and tissue samples were harvested before initiation of treatment (0 hr) and at 1, 2, 4, 6, 8, 12, 16, and 24 hrs following the intragastric administration. At each time point, two mice were euthanized and ˜200 μL blood was collected by cardiac puncture, and tissues (liver, lung, kidney, heart, pancreas, and colon) were harvested, washed free of blood with PBS, blotted dry, weighed, and stored at −80° C. until analysis. The collected blood samples were allowed to clot, centrifuged, and then the serum was separated and stored at −80° C. until analysis.
(§2) The tissue samples were homogenized in 5 volumes of ice-cold normal saline. Aliquots of serum or tissue homogenate were spiked with ethyl acetate (containing 50 ng/ml zilueton as an internal standard) as follows: 100 μL serum/500 μL ethyl acetate and 500 μL tissue homogenate/1 ml ethyl acetate. The mixtures were vortex-mixed and centrifuged at 14,000 rpm for 5 minutes. The top layer was separated and dried under a stream of nitrogen in a water bath at about 50° C. The residue was reconstituted in 100 μL of methanol/water containing 0.45% formic acid (70:30 v/v) and then centrifuged again.
(§3) The supernatant (100 μL) was injected into the HPLC equipment, and separated on a Waters Xterra MS column (2.1×50 mm, […] i.d.) With a mobile phase consisting of methanol/water containing 0.45% formic acid (70:30 v/v) at a flow rate of 0.2 ml/min. The column effluent was monitored using a Waters Quattro Micro™ triple quadrapole mass-spectrometric detector equipped with an electrospray ionization source. (Waters Corporation, Milford, Mass.). […] The internal standard zilueton was monitored in the positive mode at the transition of m/z, 237.1→160.8. […] The within-day and between-day precision and accuracies of the assay was <15%.
(§4) Serum pharmacokinetic parameters were estimated using non-compartmental analysis with WinNonlin software version 4.2 (Pharsight Corporation, Cary, N.C.). The maximum serum concentration (Cmax) and the time of occurrence for maximum concentration (Tmax) were obtained by visual inspection of the serum concentration-time curve after drug administration. The total area under the serum concentration-time curve from time zero to the last measurable time point ([…]) was calculated using the linear and logarithmic trapezoidal method for ascending and descending serum concentrations, respectively.

[2] = test system: AsPC-1, AsPC1-GTR, MIAPaCa-2, and MIAPaCa-2-GTR cell lines; experiment: BD BioCoat tumor invasion assay; type: cell-based, human; details: 4 μmol/L
Description: The invasive activity of the drug resistant cell lines was tested by using a BD BioCoat Tumor Invasion Assay System (BD Biosciences, Bedford, Mass.) according to the manufacturer's protocol. […] The fluorescence was read using a TECAN Microplate Reader at 530/590 nm and photographed.

[3] = test system: BxPC-3 pancreatic cancer cells; experiment: Cell Apoptosis ELISA (histone/DNA fragments), BxPC-3; type: cell-based, human; details: 72 h, various concentrations
Text: A Cell Apoptosis ELISA Detection Kit (Roche, Palo Alto, Calif.) was used to determine whether the inhibition of cell growth could be due, at least partially, to the induction of apoptosis, in the BxPC-3 pancreatic cancer cells. […] After the treatment, the cytoplasmic histone/DNA fragments were extracted and bound to immobilized anti-histone antibody. Subsequently, peroxidase-conjugated anti-DNA antibody was used for the detection of immobilized histone/DNA fragments.

cellular 26S proteasome = molecular target: T1, cellular 26S proteasome (Homo sapiens, UniProt P20618+P28074); experiment: Proteasomal chymotrypsin-like activity in treated HCT 116 cells; type: cell-based; details: 24 h
T1 construct: host or cells: HCT 116 human colon cancer cells
Description: HCT 116 human colon cancer cells; human pancreatic carcinoma cell lines BxPC-3 and MIA PaCa-2, were purchased from American Type Culture Collection (Manassas, Va.) and grown in Dulbecco modified Eagle's medium supplemented with 10% fetal bovine serum (FBS), 100 units/ml of penicillin, and 100 μg/ml of streptomycin. Cells were maintained at 37° C. and 5% CO2. FBS was obtained from Tissue Culture Biologicals (Tulare, Calif.). Penicillin and streptomycin were purchased from Invitrogen Co. (Carlsbad, Calif.).
As a control, untreated cells were maintained in the solvent ethanol (E).

[4] = test system: COX-2, E-cadherin, PTEN, pAkt, tropomyosin expression; experiment: Western blot of COX-2, E-cadherin, PTEN, pAkt, tropomyosin; type: cell-based, human; details: BxPC-3 cell line only, 72 h
[5] = test system: miR-21, miR-200b, miR-200c; experiment: RT-PCR of miR-21, miR-200b, miR-200c in MIAPaCa-2 tumors; type: in vivo, mice
Description: Therefore, the expression of miRNAs (miRNA-200b, miR-200c, and miR-21) in MIAPaCa-2 tumors, was assessed with a TaqMan MicroRNA Assay kit (Applied Biosystems, Carlsbad, Calif.) following the manufacturer's protocol. 5 ng of total RNA was reverse transcribed and real-time PCR reactions were carried as previously described.

[6] = Tissue distribution after single intragastric dose; type: in vivo, mice; details: for concentration in the colon: 250 mg/kg oral; for preferential tissue distribution: 250 mg/kg single dose, liver, lung, kidney, heart, pancreas, colon
Description: as §1, §2, §3

miR-200b and miR-200c = experiment: Real-time RT-PCR of miR-200b and miR-200c in PC cell lines; type: cell-based, human; details: 72 h; BxPC-3, MIAPaCa-E, MIAPaCaM
Description: The expression of miRNAs (miRNA-200a, miR-200b, and miR-21) in all three pancreatic cancer cell lines, was measured with a TaqMan MicroRNA Assay kit (Applied Biosystems, Carlsbad, Calif.) following the manufacturer's protocol. […] Real-time RT-PCR reactions were then carried out in a total volume of 25 μl reaction mixture, as described by Li, et al., id., using Smart Cycler II (Cepheid, Sunnyvale, Calif.). The data were analyzed using Ct method and were normalized by RNU6B expression in each sample.

PGE2 = PGE2 immunoassay, three PC lines; type: cell-based, human; details: 24 h serum-free; CDF or CUR 1-4 μMol/L, GEM 10 nMol/L
[7] = Serum pharmacokinetics after single intragastric dose; type: in vivo, mice
Description: as §1, §2, §3, §4

[8] = female, ICR-SCID, mouse, po, pancreas, 250 mg/kg single intragastric
[9] = pancreas, 250 mg/kg single intragastric
[10] = female, ICR-SCID, mouse, po, serum, 250 mg/kg single intragastric
[11] = serum, 250 mg/kg single intragastric
[12] = serum, as printed in text 'at 1 h'

Question: Which results are given for `COc1cc(/C=C/C(=O)C(=Cc2ccc(F)c(F)c2)C(=O)/C=C/c2ccc(O)c(OC)c2)ccc1O` [CDF, (1E,6E)-1,7-bis(4-hydroxy-3-methoxyphenyl)hepta-1,6-diene{4(3,4 difluorobenzaldehyde)}-3,5-dione]?
Answer: AUClast in pancreas tissue relative to CUR ([1]; 250 mg/kg): 10.6 times; Cmax in pancreas tissue relative to CUR ([1]; 250 mg/kg): 4.3 times; Kp at 8 h ([1]; female, ICR-SCID, mouse, pancreas / serum, oral, 250 mg/kg, at 8 h, read-out: Cmax in pancreas relative to serum): 44.5; Cmax [1, 8]: 9350 ng/g; Tmax [1, 8]: 8 h; AUClast [1, 9]: 36.56 µg·h/g; Clast [1, 9]: 0.04 µg/g; Tlast [1, 9]: 12.0 h; inhibition of invasion [2]: significant inhibition of invasion; induction of apoptotic cell death [3]: superior to CUR; inhibition at 10 µM (cellular 26S proteasome): 34%; inhibition at 20 µM (cellular 26S proteasome): 51%; inhibition at 30 µM (cellular 26S proteasome): 61%; E-cadherin expression [4]: significantly enhanced; expression of MiR-21 in tumors [5]: significant reduction in the expression of MiR-21; expression of miR-200b and miR-200c in tumors [5]: increased expression of both miR-200b, and miR-200c; concentration in the colon [6]: detectable at high concentrations in the colon; preferential tissue distribution [6]: accumulated preferentially in the pancreas; expression of miR-200b and miR-200c (miR-200b and miR-200c): much more pronounced; PGE2 secretion level (PGE2): significant reduction in PGE2 level; AUC(0-t) [7, 10]: 1220 ng·h/mL; Cmax [7, 10]: 210 ng/mL; Tmax [7, 10]: 8 h; increase in systemic drug level over Curcumin ([7]; serum AUClast, oral 250 mg/kg): 2.7 fold; Clast [7, 11]: 40 ng/mL; Tlast [7, 11]: 16.0 h; AUClast [7, 12]: 1220 ng·h/mL

Question: Which AUClast [1, 9] does the source give for `COc1cc(/C=C/C(=O)CC(=O)/C=C/c2ccc(O)c(OC)c2)ccc1O` [CUR, (1E,6E)-1,7-bis(4-hydroxy-3-methoxyphenyl)hepta-1,6-diene-3,5-dione, reference compound] here?
Answer: 3.46 µg·h/g

Question: And the Clast [1, 9]?
Answer: 0.20 µg/g

Question: What about the Tlast [1, 9] of the same molecule?
Answer: 16.0 h

Question: What about the inhibition of invasion [2] of the same molecule?
Answer: minimal inhibition on invasion

Question: What about the “induction of apoptotic cell death” value [3] of the same molecule?
Answer: induce apoptosis

Question: And the inhibition at 10 µM (cellular 26S proteasome)?
Answer: 27%

Question: What about the inhibition at 20 µM (cellular 26S proteasome) of the same molecule?
Answer: 47%

Question: And the inhibition at 30 µM (cellular 26S proteasome)?
Answer: 64%

Question: What about the E-cadherin expression [4] of the same molecule?
Answer: significantly enhanced

Question: What about the “expression of miR-200b and miR-200c in tumors” value [5] of the same molecule?
Answer: minimal

Question: What about the “concentration in the colon” value [6] of the same molecule?
Answer: detectable at high concentrations in the colon

Question: What about the preferential tissue distribution [6] of the same molecule?
Answer: present mainly in heart and lung tissue

Question: What about the “expression of miR-200b and miR-200c” value (miR-200b and miR-200c) of the same molecule?
Answer: increased expression of miR-200b and miR-200c

Question: What about the PGE2 secretion level (PGE2) of the same molecule?
Answer: significant reduction in PGE2 level

Question: And the AUClast [7, 11]?
Answer: 440 ng·h/mL

Question: What about the Clast [7, 11] of the same molecule?
Answer: 30 ng/mL

Question: And the Tlast ([7]; serum, 250 mg/kg single intragastric, 250 mg/kg)?
Answer: 8 h

Question: What about the Tlast ([7]; serum, 250 mg/kg single intragastric, listed as Curcumin, 250 mg/kg) of the same molecule?
Answer: 8.0 h

Question: What about the AUClast [7, 12] of the same molecule?
Answer: 0.44 µg/mL
